Test: Biochemical Assay : 5 μl WT full length PAICS (final assay concentration, fac, 2.5 nM) in basic buffer, added to black, non-binding, 384-well plates (Corning #3575), columns 1 to 22. 5 μl basic buffer was added to columns 23+24 (negative control). PAICS stock at 31.9 μM from the PI's lab (Steve Firestine). Basic buffer contained 50 mM Tris-HCl pH8 and 0.5 mM EDTA, fac.1 μl compound in 100% DMSO added per well, or 1 μl 100% DMSO to positive controls (columns 1+2) and negative controls (columns 23+24). Final assay top concentration of compound either 1 mM or 30-μM, serially diluted with half-log dilutions across the plate in duplicate (one 10-point concentration response curve across wells 3 to 12, another across 13 to 22). Compounds pre-incubated with PAICS enzyme for 30 mins at RT. 2 μl CAIR added (fac 10 μM) in basic buffer plus 25 mM MgCl2 and 50 mM KHCO3 fac to all wells. CAIR stock 50 mM from Steve Firestine's lab. 1 hr RT incubation for AIR-CAIR equilibration. NB: ˜50% CAIR is decarboxylated during equilibration therefore 5 μM remains for the synthetase reaction.2 μl ATP/aspartic acid added (fac 30 μM/180 μM) in reaction buffer to all wells. 30 mins RT incubation for appropriate level of ATP turnover. […]

- IC50: > 100 nM
Compound: Nc1nc(C(=O)Nc2cc(N3CCN(C(=O)OCC4CNC4)CC3)ccc2Cl)co1

From ChEMBL document CHEMBL5728360, “Oxazole derivatives for use in the treatment of cancer” (2021)
